For 18 compounds, IC50 results are on record in patent US8080566B1, “Carbazole inhibitors of histamine receptors for the treatment of disease” (Kalypsys, Inc, priority 2008, dated 2011).

SMILES strings stand for the structures.

Experiment [1] deals with human histamine receptor type 1 (Homo sapiens, UniProt P35367). The experiment in a line: In vitro histamine receptor cell-based assay, H1R antagonist (aequorin bioluminescence). The conditions noted are these: CHO-K1 cells expressing human H1 receptor and aequorin; histamine at EC80. From the text:
(§1) In Vitro Histamine Receptor Cell-Based Assays
(§2) The assays are based on an aequorin dependent bioluminescence signal, generated by receptor signaling through Gq/11 or a similarly acting G protein and a resulting transient calcium flux. Doubly-transfected, stable CHO-K1 cell lines expressing human histamine receptor type 1 or type 4, mitochondrion-targeted aequorin, and (histamine type 4 receptor only) human G protein Gα16 are obtained from Perkin-Elmer (Histamine H1 cell line, catalog ES-390-A; Histamine H4 cell line, catalog ES-393-A). Cells are maintained on conventional culture plasticware in F12 (Ham's) growth medium containing 10% (vol./vol.) fetal bovine serum, penicillin (100 IU/ml), streptomycin (0.1 mg/ml), zeocin (0.25 mg/ml) and geneticin (0.40 mg/ml), as per the manufacturer's instructions (all components from Invitrogen, Inc.). One day prior to assay, the growth medium is replaced with the same, excluding zeocin and geneticin.
(§3) To prepare cells for a histamine receptor assay, growth medium is aspirated, and the cells are rinsed with calcium-free, magnesium-free phosphate-buffered saline. The rinse is aspirated and replaced with Versene (Invitrogen, Inc.) and the cells incubated for two to three minutes at 37° C., followed by tapping the plate to fully dislodge cells. Assay medium (DMEM:F12 [50:50], phenol-red free, containing 1 mg/ml protease-free bovine serum albumin) is added to collect the cells, which are then transferred to a conical tube for centrifugation. The cell pellet is re-suspended in assay medium, and the cell density is determined by counting with a hemacytometer. The cells are then centrifuged again and re-suspended in assay medium to a final density of 5×10^6 cells/ml. Coelenterazine-h dye (500 μM in ethanol) is then added to a final concentration of 5 μM, and mixed immediately. The conical tube containing the cells is then wrapped with foil to protect the light sensitive dye. The cells are incubated for four hours further at normal room temperature (approximately 21° C.) with vertical rotation to keep them in suspension.
(§4) Just before assay, the dye-loaded cells are diluted to 0.75×10^6 cells/ml (H1 receptor) or 1.5×10^6 cells/ml (H4 receptor) with additional assay medium. Cells are dispensed to 1536 well microtiter plates at 3 μl/well. To assay receptor antagonist activity, […] of 100× concentration test compounds in dimethyl sulfoxide (DMSO) are dispensed to the wells, one compound per well, by passive pin transfer, and the plates are incubated for 15 minutes at room temperature. Assay plates are then transferred to a Lumilux (Perkin-Elmer) bioluminescence plate reader equipped with an automated 1536 well disposable tip pipette. The pipette then dispenses 3 μl/well of agonist (histamine, at twice the final concentration, where final concentration is a previously determined EC80 for response), with concurrent bioluminescence detection.
(§5) CCD imaging capture on the Lumilux instrument includes a 5 second baseline read prior to agonist addition, generally with a 40 second complete read per plate. A decrease in bioluminescence signal (measured either as area-under-the-curve, or maximum signal amplitude minus minimum signal amplitude) correlates with receptor antagonism. Negative control activity is measured with DMSO lacking any test compound. For receptor antagonist assays, positive control activity is measured with diphenhydramine (2-Diphenylmethoxy-N,N-dimethylethylamine, 10 μM final concentration, H1 receptor) or JNJ7777120 (1-[(5-Chloro-1H-indol-2-yl)carbonyl]-4-methyl-piperazine, 10 μM final concentration, H4 receptor). For receptor agonist assays, positive activity is measured with histamine (10 μM final concentration). Efficacy is measured as a percentage of positive control activity.

The target in experiment [2] is human histamine receptor type 4 (Homo sapiens, UniProt Q9H3N8). Put plainly: In vitro histamine receptor cell-based assay, H4R antagonist (aequorin bioluminescence). The note with it: CHO-K1 cells expressing human H4 receptor, aequorin and Gα16; histamine at EC80.
human histamine receptor type 4, sequence (Q9H3N8 whole entry): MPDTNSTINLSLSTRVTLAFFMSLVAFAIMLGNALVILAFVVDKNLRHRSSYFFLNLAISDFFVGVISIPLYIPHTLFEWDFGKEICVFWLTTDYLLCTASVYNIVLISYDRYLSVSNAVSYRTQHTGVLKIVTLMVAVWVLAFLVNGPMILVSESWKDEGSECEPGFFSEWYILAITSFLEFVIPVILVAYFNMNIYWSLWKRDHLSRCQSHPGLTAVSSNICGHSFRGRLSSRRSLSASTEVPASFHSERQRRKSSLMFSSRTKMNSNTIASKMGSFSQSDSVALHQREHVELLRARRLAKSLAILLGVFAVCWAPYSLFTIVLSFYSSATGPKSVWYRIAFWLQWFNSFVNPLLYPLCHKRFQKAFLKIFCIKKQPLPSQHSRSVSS
Description: as §1, §2, §3, §4, §5

human histamine receptor type 1, sequence (P35367 whole entry): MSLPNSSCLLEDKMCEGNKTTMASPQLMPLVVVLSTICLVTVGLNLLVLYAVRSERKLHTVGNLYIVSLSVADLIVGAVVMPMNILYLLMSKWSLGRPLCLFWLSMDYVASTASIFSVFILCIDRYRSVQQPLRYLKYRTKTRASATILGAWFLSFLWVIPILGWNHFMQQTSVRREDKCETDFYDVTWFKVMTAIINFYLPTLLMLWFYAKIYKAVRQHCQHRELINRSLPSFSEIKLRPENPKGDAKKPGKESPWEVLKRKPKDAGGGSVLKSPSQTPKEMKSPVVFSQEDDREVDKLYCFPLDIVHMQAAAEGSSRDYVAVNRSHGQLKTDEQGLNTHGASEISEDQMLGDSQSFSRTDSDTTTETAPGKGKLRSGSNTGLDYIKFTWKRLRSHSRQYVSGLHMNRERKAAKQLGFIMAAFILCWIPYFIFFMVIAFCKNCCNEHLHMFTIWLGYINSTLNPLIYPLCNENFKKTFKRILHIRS

What is called IC50 is the midpoint of a concentration-inhibition curve. Turning to `CCn1c2ccccc2c2cc(CN3CCCC(C(=O)NC)C3)ccc21` (stereo not drawn) [Example 16, 1-((9-ethyl-9H-carbazol-3-yl)methyl)-N-methylpiperidine-3-carboxamide], the IC50 in experiment [1] amounted to 0.95 µM; in experiment [2], 0.34 µM.

For `CCn1c2ccccc2c2cc(CN3CCNCC3)ccc21` [Example 9, 9-Ethyl-3-(piperazin-1-ylmethyl)-9H-carbazole], the IC50 worked out at 46.4 µM in experiment [1] and 12.6 µM in experiment [2].

For the compound `CCn1c2ccccc2c2cccc(CN3CCCC(c4ccn[nH]4)C3)c21` (stereo not drawn) [Example 30, 1-((3-(1H-pyrazol-5-yl)piperidin-1-yl)methyl)-9-ethyl-9H-carbazole], the results for the half-inhibitory concentration (IC50) in experiment [1] and in experiment [2] were greater than 100 µM and 37.4 µM, respectively.

In the case of `CCn1c2ccccc2c2cc(CN3CCCC(c4cn[nH]c4)C3)ccc21` (stereo not drawn) [Example 24, 3-((3-(1H-pyrazol-4-yl)piperidin-1-yl)methyl)-9-ethyl-9H-carbazole], the IC50 in experiment [1] is 0.57 µM; in experiment [2], 4.34 µM.

On to `CCn1c2ccccc2c2cc(CN3CCCC(c4ccn[nH]4)C3)ccc21` (stereo not drawn) [Example 1, 3-((3-(1H-pyrazol-5-yl)piperidin-1-yl)methyl)-9-ethyl-9H-carbazole], for which the figures for the IC50 in experiment [1] and in experiment [2] were 0.54 µM and 1.07 µM, respectively.

As for `CN(C)CCCn1c2ccccc2c2cc(CN3CCCC(c4ccn[nH]4)C3)ccc21` (stereo not drawn) [Example 26, 3-(3-((3-(1H-pyrazol-5-yl)piperidin-1-yl)methyl)-9H-carbazol-9-yl)-N,N-dimethylpropan-1-amine], the results for the concentration for half-maximal inhibition (IC50) in experiment [1] and in experiment [2] were 21.1 µM and 19.8 µM, respectively.

As for `CCn1c2ccccc2c2cc(CN3CCCC(C(=O)N(C)C)C3)ccc21` (stereo not drawn) [Example 20, 1-((9-ethyl-9H-carbazol-3-yl)methyl)-N,N-dimethylpiperidine-3-carboxamide], the figures for the 50% inhibitory concentration (IC50) in experiment [1] and in experiment [2] were 3.38 µM and 1.1 µM, respectively.

Take `CCn1c2ccccc2c2cc(CN3CCCC(C)C3)ccc21` (stereo not drawn) [Example 6, 9-Ethyl-3-((3-methylpiperidin-1-yl)methyl)-9H-carbazole]: the half-maximal inhibitory concentration (IC50) worked out at 5.97 µM in experiment [1] and 4.39 µM in experiment [2].

For `CCn1c2ccccc2c2cc(CN3CCCC(c4cnc[nH]4)C3)ccc21` (stereo not drawn) [Example 21, 3-((3-(1H-Imidazol-5-yl)piperidin-1-yl)methyl)-9-ethyl-9H-carbazolee], the half-inhibitory concentration (IC50) stood at 1.35 µM in experiment [1] and 2.75 µM in experiment [2].

On to `CCn1c2ccccc2c2cc(CN3CCCC(n4ccnn4)C3)ccc21` (stereo not drawn) [Example 18, 3-((3-(1H-1,2,3-triazol-1-yl)piperidin-1-yl)methyl)-9-ethyl-9H-carbazole], for which the figures for the IC50 in experiment [1] and in experiment [2] were 1.72 µM and 2.28 µM, respectively.

Consider `CCn1c2ccccc2c2cc(CN3CCC(O)CC3)ccc21` [Example 3, 1-((9-Ethyl-9H-carbazol-3-yl)methyl)piperidin-4-ol], for which the values for the IC50 in experiment [1] and in experiment [2] were 3.12 µM and 3.06 µM, respectively.

As to `CCn1c2ccccc2c2c(CN3CCN(C)CC3)cccc21` [Example 32, 9-ethyl-4-((4-methylpiperazin-1-yl)methyl)-9H-carbazole], the concentration for half-maximal inhibition (IC50) in experiment [1] is greater than 30 µM; in experiment [2], 21.9 µM.

Regarding `CCn1c2ccccc2c2cc(CN3CCCC(C(=O)O)C3)ccc21` (stereo not drawn) [Example 11, 1-((9-Ethyl-9H-carbazol-3-yl)methyl)piperidine-3-carboxylic acid], the IC50 stood at 9.91 µM in experiment [1] and 6.15 µM in experiment [2].

In the case of `CCn1c2ccccc2c2cc(CN3CCN(C)CC3)ccc21` [Example 25, 9-ethyl-3-((4-methylpiperazin-1-yl)methyl)-9H-carbazole], the values for the IC50 in experiment [1] and in experiment [2] were 2.58 µM and 0.66 µM, respectively.

In the case of `CCn1c2ccccc2c2ccc(CN3CCCC(c4ccn[nH]4)C3)cc21` (stereo not drawn) [Example 29, 2-((3-(1H-pyrazol-5-yl)piperidin-1-yl)methyl)-9-ethyl-9H-carbazole], the figures for the IC50 in experiment [1] and in experiment [2] were 6.74 µM and 32.1 µM, respectively.

Regarding `CCn1c2c(c3cc(CN4CCCC(c5ccn[nH]5)C4)ccc31)CCCC2` (stereo not drawn) [Example 22, 6-((3-(1H-pyrazol-5-yl)piperidin-1-yl)methyl)-9-ethyl-2,3,4,9-tetrahydro-1H-carbazole], the IC50 in experiment [1] is 8.72 µM; in experiment [2] it was 5.9 µM.

Regarding `CCn1c2ccccc2c2cc(CN3CCCC(CO)C3)ccc21` (stereo not drawn) [Example 12, (1-((9-Ethyl-9H-carbazol-3-yl)methyl)piperidin-3-yl)methanol], the IC50 in experiment [1] is 3.16 µM; in experiment [2], 1.46 µM.

Turning to `CCn1c2ccccc2c2cc(CN3CCCC(c4nnn[nH]4)C3)ccc21` (stereo not drawn) [Example 14, 3-((3-(1H-tetrazol-5-yl)piperidin-1-yl)methyl)-9-ethyl-9H-carbazole], the concentration for half-maximal inhibition (IC50) was 0.69 µM in experiment [1] and 0.33 µM in experiment [2].
